Results on eight compounds are retold here after ChEMBL document CHEMBL1201862, “PubChem BioAssay data set” (2004).

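Growth conditions: 96-well plates. Treatment: test compound, 48 hours, 5 concentrations. Analysis: linear interpolation between bracketing concentrations; unreached endpoints set to highest concentration. GI50: concentration for 50% inhibition of growth.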 The source made the active and inactive calls. Cut-off read from the data, not from the text of the source: active = GI50 up to about 1.1 µM and inactive = higher.

Test systems include 786-0; BT-549; CAKI-1; COLO 205; DU-145; HT-29; K562; M14; MDA-MB-435; MOLT-4; NCI-H226; RXF 393; SF-268; SK-MEL-2; SK-OV-3; SN12C; SNB-19; TK-10; UO-31; SNB-75.
Common to all, as to experiment: inhibition of tumour cell growth, NCI panel, 48 h

Consider `COc1cc(CNC(=O)[C@H](Cc2ccc(O)cn2)NC(C)=O)cc(OC)c1`, for which the GI50 in the experiment with 786-0 is > 100 µM (inactive); in the experiment with BT-549 it was > 100 µM (inactive); in the experiment on CAKI-1, > 100 µM (inactive); in the experiment with COLO 205, > 100 µM (inactive); with DU-145, > 100 µM (inactive); with HT-29, 41 µM (inactive). Moreover, the GI50 in the experiment with K562 is 83 µM (inactive); in the experiment on M14, 92.5 µM (inactive); in the experiment with MDA-MB-435, > 100 µM (inactive); with MOLT-4, 57.8 µM (inactive); with NCI-H226, > 100 µM (inactive); in the experiment on RXF 393, > 100 µM (inactive). The GI50 in the experiment on SF-268, in the experiment on SK-MEL-2, with SK-OV-3, in the experiment with SN12C, in the experiment with SNB-19 and with TK-10 was > 100 µM (inactive) each time. For the same compound, the GI50 in the experiment on UO-31 is > 100 µM (inactive).
Take `COc1cc([C@H]2CC(=O)C[C@H](c3cc(OC)c(OC)c(OC)c3)C23C(=O)c2ccccc2C3=O)cc(OC)c1OC`: the GI50 in the experiment on 786-0 was 77.6 µM (inactive); in the experiment on BT-549 it was 91.4 µM (inactive); in the experiment with CAKI-1 it was > 100 µM (inactive); with COLO 205 it was > 100 µM (inactive); in the experiment with DU-145, > 100 µM (inactive); in the experiment on HT-29 it was > 100 µM (inactive). The GI50 with K562 was 44.2 µM (inactive); in the experiment on M14, > 100 µM (inactive); with MDA-MB-435, > 100 µM (inactive); in the experiment on MOLT-4 it was 29.1 µM (inactive); in the experiment with NCI-H226 it was 54.5 µM (inactive); in the experiment on RXF 393 it was 32.5 µM (inactive). Further, the GI50 with SF-268 is > 100 µM (inactive); with SK-MEL-2, 42.4 µM (inactive); in the experiment with SK-OV-3 it was 37.3 µM (inactive); in the experiment on SN12C, > 100 µM (inactive); in the experiment on SNB-19, > 100 µM (inactive); in the experiment with TK-10 it was > 100 µM (inactive). Moreover, the GI50 in the experiment on UO-31 was > 100 µM (inactive).
Turning to `Cc1ccc(/C=C2\N=C(N3CCCCC3)NC2=O)cc1`, the GI50 with 786-0 was > 100 µM (inactive); in the experiment on BT-549, > 100 µM (inactive); in the experiment on CAKI-1, > 100 µM (inactive); in the experiment on COLO 205, > 100 µM (inactive); in the experiment with DU-145, > 100 µM (inactive); in the experiment with HT-29, 95.9 µM (inactive). In addition, the GI50 with M14 was > 100 µM (inactive); in the experiment on MDA-MB-435, > 100 µM (inactive); in the experiment with MOLT-4 it was > 100 µM (inactive); in the experiment with NCI-H226 it was > 100 µM (inactive); in the experiment with RXF 393 it was > 100 µM (inactive); with SF-268, 98.6 µM (inactive). Also, the GI50 in the experiment on SK-MEL-2, with SK-OV-3, in the experiment on SN12C, in the experiment with SNB-19, in the experiment with TK-10 and in the experiment with UO-31 was > 100 µM (inactive) throughout.
Turning to `CCOC(=O)c1nc2ccccc2nc1NCc1ccc(OC)c(OC)c1`, the GI50 in the experiment with 786-0, with BT-549, in the experiment with CAKI-1, with COLO 205, with DU-145 and with HT-29 was > 100 µM (inactive) in each case. For the same compound, the GI50 in the experiment with K562 was > 100 µM (inactive); in the experiment with MDA-MB-435 it was > 100 µM (inactive); with MOLT-4, > 100 µM (inactive); in the experiment on NCI-H226, > 100 µM (inactive); in the experiment on RXF 393, 27.8 µM (inactive); with SF-268 it was > 100 µM (inactive). Moreover, the GI50 is > 100 µM (inactive) in the experiment on SK-OV-3; > 100 µM (inactive) in the experiment on SN12C; > 100 µM (inactive) in the experiment on SNB-75; 82.4 µM (inactive) with TK-10; > 100 µM (inactive) with UO-31.
Regarding `COc1ccccc1C(C1=C(O)COC1=O)c1cc2c(cc1OC(C)=O)OCO2` (stereo not drawn), the GI50 with 786-0, with BT-549, with CAKI-1, in the experiment with COLO 205, with DU-145 and in the experiment on HT-29 was > 100 µM (inactive) each time. The GI50 in the experiment with K562, in the experiment with M14, in the experiment on MDA-MB-435, in the experiment on MOLT-4, with NCI-H226 and in the experiment on RXF 393 was > 100 µM (inactive) throughout. Also, the GI50 with SF-268, in the experiment on SK-OV-3, in the experiment with SN12C, in the experiment on SNB-19, in the experiment with SNB-75 and in the experiment with TK-10 was > 100 µM (inactive) each time. Besides, in the experiment on UO-31, the GI50 was > 100 µM (inactive).
As to `Cn1c(=N)n[n+]([O-])c2ccccc21`, the GI50 in the experiment with 786-0 is 4.24 µM (inactive); in the experiment with BT-549 it was 1.87 µM (inactive); with CAKI-1, 2.49 µM (inactive); with COLO 205, 2.34 µM (inactive); in the experiment on DU-145, 2.26 µM (inactive); in the experiment on HT-29 it was 1.68 µM (inactive). Also, the GI50 in the experiment on K562 was 1.59 µM (inactive); in the experiment with M14, 2.02 µM (inactive); with MDA-MB-435 it was 0.541 µM (active); in the experiment on MOLT-4, 2.03 µM (inactive); in the experiment with NCI-H226, 6.98 µM (inactive); in the experiment on SK-MEL-2, 2.22 µM (inactive). For the same compound, the GI50 is 25.3 µM (inactive) in the experiment with SK-OV-3; 1.84 µM (inactive) in the experiment on SN12C; 2.01 µM (inactive) in the experiment with SNB-75; 25.6 µM (inactive) with TK-10; 3.22 µM (inactive) in the experiment with UO-31.
With `COc1ccc(/C=c2\s/c(=C3/SC(=S)N(c4ccccc4)C3=O)n(-c3ccccc3)c2=O)cc1`, the GI50 with 786-0 was 43.6 µM (inactive); in the experiment with BT-549, 43.2 µM (inactive); with CAKI-1, 32.9 µM (inactive); in the experiment with COLO 205, > 100 µM (inactive); in the experiment on DU-145 it was > 100 µM (inactive); with HT-29, > 100 µM (inactive). In addition, the GI50 in the experiment on K562 was > 100 µM (inactive); in the experiment with M14, > 100 µM (inactive); in the experiment with MDA-MB-435, > 100 µM (inactive); in the experiment with MOLT-4 it was 29.8 µM (inactive); with SF-268, 0.895 µM (active); with SK-OV-3 it was 12.1 µM (inactive). Further, the GI50 with SN12C is > 100 µM (inactive); in the experiment on SNB-19, 35.4 µM (inactive); in the experiment on SNB-75, 4.61 µM (inactive); in the experiment on TK-10, 21.5 µM (inactive); with UO-31 it was 73.1 µM (inactive).
In the case of `C/C=C1\CN2CCC34c5ccccc5N(C)C35OCC4(C(=O)OC)C1CC25` (stereo not drawn), the GI50 in the experiment on 786-0 is 76.2 µM (inactive); with BT-549 it was 34.3 µM (inactive); in the experiment on CAKI-1 it was 99.3 µM (inactive); in the experiment on COLO 205, 16 µM (inactive); in the experiment with DU-145, 74.6 µM (inactive); in the experiment on K562 it was 48.9 µM (inactive). In addition, the GI50 is 21.4 µM (inactive) in the experiment with M14; 38.7 µM (inactive) in the experiment with MDA-MB-435; 45.7 µM (inactive) in the experiment with MOLT-4; > 100 µM (inactive) with SF-268; 42.2 µM (inactive) in the experiment on SK-MEL-2; > 100 µM (inactive) in the experiment on SK-OV-3. For the same compound, the GI50 is 75.7 µM (inactive) with SN12C; 59.8 µM (inactive) in the experiment with SNB-19; 99.5 µM (inactive) with SNB-75; > 100 µM (inactive) in the experiment with TK-10; 70.6 µM (inactive) with UO-31.
